Results on one compound are retold here after patent US8961931B2, “18F-labeled monomeric galactose derivative used as tomography probe” (Institute of Nuclear Energy Research, Atomic Energy Council, priority 2011, dated 2015).

The data set deals with liver. In words: DMN-induced liver fibrosis, H & E and Masson's trichrome staining. It counts as in vivo, mouse. The protocol:
Please refer to FIG. 6, which is a view showing liver fibrosis of mice dyed through H & E and Masson methods. As shown in the figures, dimethylnitrosamine (DMN) is used to induce liver fibrosis. 12 mice are randomly divided into two groups each having 6 mice. One is an experimental group and the other is a control group. Mice in the experimental group are injected with 10 mg·kg of DMN for 3 continuous days in a week, and this process lasts for four weeks. Mice in the control group are injected with the same amount of normal saline diluted into a density of 10 mg/ml. During the time for inducing liver fibrosis, all mice are fed with food and water normally. Four days after injecting DMN the final time, dyeing methods of H & E and Masson's are used to examine sliced tissues of mouse bodies for confirming DMN's ability on inducing liver fibrosis of the mice.
For examining the tissues, the mice are sacrificed by blowing high-density CO2 for the mice to breathe in at first. Then, the livers are taken out to sink left lateral lobe in 4% pH 7.4 phosphate-buffered paraformaldehyde. After being paraffin-embedded for 24 hrs, 4 μm of each tissue is taken.
The tissues are examined for their morphological changes through methods of Hematoxylin and Eosin stains and then Masson's trichrome is used to examine statuses of liver fibrosis. […]

Regarding `CN(C)N=O` [DMN, dimethylnitrosamine], the “average weight of mouse having fibrosis liver relative to normal mouse” value (DMN 3 continuous days a week for four weeks) was 92%. Also, for the setting “four days after final DMN injection”, the “Masson's trichrome staining of liver tissue” value is on record as “show blue color on fibrosis tissues”.
